# Assay results from paper PMC5319746, “Phospholipid binding to the FAK catalytic domain impacts function” (PLoS ONE, 2017).
# Like-named read-outs stand apart in the source and are kept apart here.
# Legend:
# [1] = target: T1, wild type avian FAK catalytic domain (GST fusion protein) (Gallus gallus, UniProt Q00944); assay: Fluorescence anisotropy binding of BODIPY-labeled C6 phosphoinositides to wild type catalytic domain; conditions: for Binding to wild type catalytic domain compared with the PI control (ANOVA, Tukey's posttest): anisotropy at 100 and 200 μM protein
# T1 construct: the catalytic domain of FAK was expressed as a GST fusion protein; made in house; host or cells: Escherichia coli BL21 (Codon Plus)
# T1 sequence (Q00944 422-680 limits assumed): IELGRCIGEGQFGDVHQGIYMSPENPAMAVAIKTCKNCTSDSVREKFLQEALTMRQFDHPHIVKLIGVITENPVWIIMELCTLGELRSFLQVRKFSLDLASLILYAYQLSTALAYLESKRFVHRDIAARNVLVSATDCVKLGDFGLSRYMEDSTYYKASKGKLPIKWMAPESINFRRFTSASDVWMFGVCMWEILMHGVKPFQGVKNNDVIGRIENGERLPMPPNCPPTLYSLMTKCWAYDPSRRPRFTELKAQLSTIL
# Protocol: (§1) For anisotropy experiments purified GST fusion proteins were incubated with BODIPY (dipyrromethene boron difluoride)-labeled phosphoinosotides with C6-acyl chains (Echelon). Increasing concentrations of purified protein were added to 12.5 nM fluorescent phosphoinositide in buffer containing 20 mM HEPES [pH7.5], 150 mM NaCl, and 5 mM β-mercaptoethanol. Anisotropy measurements were taken at 37°C using a Flourlog spectroflourometer equipped with Glan-Thompson polarizers with FluorEssence software (HORIBA Jobin Yvon). Specific binding of the catalytic domain was determined by subtraction of binding of GST alone. Binding curves and dissociation constants were determined using the Prism 5.0 statistical analysis software (GraphPad).
# (§2) PI(4,5)P2 binding was further validated using fluorescence anisotropy. GST and the GST catalytic domain of FAK were incubated with BODIPY-TMR labeled short acyl chain (C6) PI or PI(4,5)P2 and anisotropy measured.
# To test the specificity of the lipid interaction, the binding of wild type and RK5A GST-fusion proteins to phosphatidylinositol, PI(4)P, PI(4,5)P2, and PI(3,4,5)P3 was analyzed. Purified GST catalytic domain fusion proteins were titrated into a solution of BODIPY-labeled phospholipids with C6-acyl chains, and anisotropy was measured. Phosphatidylinositol with C6-acyl chains and purified GST were used as controls. Differences in anisotropy of each BODIPY-labeled phospholipid at 100 and 200 μM of each protein were compared by ANOVA and a Tukey’s posttest (S1 Table). […] To calculate binding affinities, anisotropy was plotted against protein concentration and binding to GST was subtracted as background binding. […] To determine if the observed interaction with the short acyl chain PI(4,5)P2 required the basic residues implicated in binding to PI(4,5)P2-containing vesicles, the RK5A mutant was analyzed.
# [2] = target: T2, FAK catalytic domain RK5A mutant (GST fusion protein) (Gallus gallus, UniProt Q00944, K515A/K621A/K627A/R508A/R514A); assay: Fluorescence anisotropy binding of BODIPY-labeled C6 phosphoinositides to RK5A mutant; set-up: species or system avian
# T2 construct: This GST mutant catalytic domain fusion protein was found in the supernatant; made in house; host or cells: Escherichia coli BL21 (Codon Plus)
# T2 sequence (Q00944 422-680 R508A/R514A/K515A/K621A/K627A limits assumed): as the sequence (Q00944 422-680 limits assumed) above, with R87A, R93A, K94A, K200A, K206A counted along it
# Protocol: as §1, §2
# To test the specificity of the lipid interaction, the binding of wild type and RK5A GST-fusion proteins to phosphatidylinositol, PI(4)P, PI(4,5)P2, and PI(3,4,5)P3 was analyzed. Purified GST catalytic domain fusion proteins were titrated into a solution of BODIPY-labeled phospholipids with C6-acyl chains, and anisotropy was measured. Phosphatidylinositol with C6-acyl chains and purified GST were used as controls. […]
# [3] = target: T3, FAK catalytic domain R508A/R514A/K515A mutant (GST fusion protein) (Gallus gallus, UniProt Q00944, K515A/R508A/R514A); conditions: BODIPY-labeled C6 lipid, Fig 7, read-out: Kd for binding (specific binding, GST subtracted)
# T3 construct: mutations were engineered into the GST-catalytic domain construct; made in house; host or cells: Escherichia coli BL21 (Codon Plus)
# T3 sequence (Q00944 422-680 R508A/R514A/K515A limits assumed): as the sequence (Q00944 422-680 limits assumed) above, with R87A, R93A, K94A counted along it
# Description: (§3) Short acyl chain (C6) BODIPY labeled PI(4,5)P2, was chosen to assess the ability of these mutants to bind phospholipids using fluorescence anisotropy.
# [4] = target: T4, FAK catalytic domain K621A/K627A mutant (GST fusion protein) (Gallus gallus, UniProt Q00944, K621A/K627A); conditions: BODIPY-labeled C6 lipid, Fig 7, read-out: Kd for binding (specific binding, GST subtracted)
# T4 construct: mutations were engineered into the GST-catalytic domain construct; made in house; host or cells: Escherichia coli BL21 (Codon Plus)
# T4 sequence (Q00944 422-680 K621A/K627A limits assumed): as the sequence (Q00944 422-680 limits assumed) above, with K200A, K206A counted along it
# Description: as §3
# [5] = target: T5, FAK catalytic domain R508A/K621A mutant (GST fusion protein) (Gallus gallus, UniProt Q00944, K621A/R508A); conditions: BODIPY-labeled C6 lipid, Fig 7, read-out: Kd for binding (specific binding, GST subtracted)
# T5 construct: mutations were engineered into the GST-catalytic domain construct; made in house; host or cells: Escherichia coli BL21 (Codon Plus)
# T5 sequence (Q00944 422-680 R508A/K621A limits assumed): as the sequence (Q00944 422-680 limits assumed) above, with R87A, K200A counted along it
# Description: as §3
# [6] = wild type catalytic domain, lipid specificity experiment, Fig 8B, read-out: Kd of the wild type catalytic domain for each phosphatidylinositol phosphate
substance,measurement,setting,value
"PI(3,4,5)P3","Binding to wild type catalytic domain compared with the PI control (ANOVA, Tukey's posttest)",[1],significant
same,Kd,[1]; [6],16 ± 9.2 µM
PI(4)P,"Binding to wild type catalytic domain compared with the PI control (ANOVA, Tukey's posttest)",[1],"approached, but did not reach significance"
same,Kd,[1]; [6],11.7 ± 13.7 µM
"Phosphatidylinositol-4,5-bisphosphate [PI(4,5)P2]","Binding to wild type catalytic domain compared with the PI control (ANOVA, Tukey's posttest)",[1],significant
same,Kd,"[1]; wild type catalytic domain, BODIPY-labeled C6 lipid 12.5 nM, 37°C, Fig 7 experiment, read-out: Kd for binding (specific binding, GST subtracted)",15.7 ± 6.5 µM
same,Kd,[1]; [6],12.9 ± 2.3 µM
same,Kd,"[2]; BODIPY-labeled C6 lipid, Fig 7 experiment, read-out: Kd for binding (specific binding, GST subtracted)",> 200 µM
same,Specific binding (in words),"[2]; anisotropy, GST subtracted",no specific binding
same,Kd,[3],16.4 ± 3.2 µM
same,Kd,[4],20.8 ± 2.7 µM
same,Kd,[5],> 200 µM
phosphatidylinositol [PI],Specific binding (in words),"[1]; wild type catalytic domain, anisotropy, GST subtracted",did not specifically bind
same,Kd,[1]; [6],> 200 µM
